Consider 2 molecules from publication PMC7835894 (Molecules, 2021).

The structures appear in SMILES notation.

Common to all, as to test: Western blotting in Caco-2 cells
Type in all cases: cell-based, human
Common to all, as to conditions: Caco-2, IC50 dose, 24 h, normalized to β-actin
(In western blotting, separated proteins are transferred to a membrane and probed.)

One test has as its system cleaved Cas-3. The protocol:
(§1) The expression of Bax, Bcl-2, Cyt-C, cleaved cas-3 and p53 proteins in Caco-2 cells was determined using Western blot procedure according to the methods mentioned previously. […] Then, cells were lysed in 150 µL pre-cold lysis buffer [Tris-Base “10 mM”, NaCl “100 mM”, Ethylene glycol bis (2-aminoethyl) tetraacetic acid (EGTA) “20 mM”, ethylenediaminetetraacetic acid (EDTA) “25 mM”, 1% (v/v) NP-40, and 1% (v/v) Triton X-100; pH 7.4] immediately supplemented with 1:450 protease and phosphatase inhibitors cocktail (Sigma-Aldrich). Caco-2 cells were immediately collected by cell scraper, sonicated, and centrifuged at 12,000 rpm for 15 min. Total proteins in the produced supernatant were determined colorimetrically using the Pierce™ 660 nm Assay (Thermo Scientific, Rockford, IL, USA). Equal amounts (30 µg) of protein were mixed with sodium dodecyl sulfate (SDS)-loading buffer containing Tris-HCl, dithiothreitol (DTT), SDS, glycerol, and Bromophenol blue. The protein samples were then denatured by boiling for 5 min, allowed to cool on ice for 10 min and separated by SDS-polyacrylamide gel electrophoresis (Cleaver Scientific Ltd., Rugby, Warwickshire, UK), and transferred onto Polyvinylidene Difluoride (PVDF) membranes for 30 min using Trans-Blot® SD semi-dry transfer cell (Biorad). Membranes were then blocked with 5% (w/v) blotting-grade dry milk (Biorad) in Tris-buffered saline-Tween-20 (TBS-T), washed and incubated with antibodies against Bax, Bcl-2, cleaved caspase-3 (1:100–1:2000, Cell Signaling Technology), cytochrome c (1:500, Santa Cruz Biotechnology), p53 (1:1500, Abcam) and β-actin (1:2500, Sigma-Aldrich) for 16–17 h at 4 °C in a humidified chamber. The blots were washed, incubated at RT with matched horseradish peroxidase (HRP)-linked secondary antibodies (Dako, Denmark) for 1.5 h, and the bands were visualized with chemiluminescence Western Lightning ECL (Perkin Elmer, Waltham, MA) for 1 min in Chemi-Doc imager (Biorad, Hercules, CA, USA) and finally analyzed with Bio-Rad Image Lab software with normalization to β-actin.

The next test concerns Cyt-C. As to the method:
as §1

The test system of another test is p53. The protocol:
as §1

As to `CC1=C(/C=C/C(C)=C/C=C/C(C)=C/C(=O)O)C(C)(C)CCC1` [ATRA, All-trans retinoic acid, reference compound], in the test on cleaved Cas-3, the “activated (cleaved) Cas-3 protein level” value is recorded as “increment in the level of activated Cas-3”.

As for `CC1(C)CCC(C)(C)c2cc(C#Cc3cccc(C(=O)O)c3)ccc21` [EC19, 3-(5,5,8,8-tetramethyl-5,6,7,8-tetrahydronaphthalen-2-ylethynyl) benzoic acid], the “activated (cleaved) Cas-3 protein level” value in the test on cleaved Cas-3 is given as “increment in the level of activated Cas-3”. Further, in the test with Cyt-C, the Cyt-C protein level result is “significantly increased”. The p53 protein level entry in the test on p53 is given as “significantly increased”.
